Data as given in article PMC10682101, “In vitro pharmacological characterization of standard and new lysophosphatidic acid receptor antagonists using dynamic mass redistribution assay” (Frontiers in Pharmacology, 2023).
“Also recorded” adds a separate entry of the source. Where two headings read alike, the source gives them in different places.

Key:
[1] = system: CHO wild-type cells; assay: DMR assay in CHO wild-type cells (control); assay type: cell-based; conditions: for DMR response: CHO cells
Protocol: Confluent cells were sub-cultured using trypsin/EDTA and used for experiments. Cells were seeded at a density of 20,000 cells/well in 30 µL into fibronectin-coated EnspireTM-LC 384-well plates and cultured for 20 h to form a confluent monolayer. On the day of the experiment, the cells were manually washed twice and maintained with assay buffer (HBSS with 20 mM HEPES, 0.01% BSA) for 90 min before DMR experiments. DMR was monitored in real time with a temporal resolution of 44 s throughout the assay. Experiments were performed at 37°C using an EnSight Multimode Plate Reader (PerkinElmer). The agonism protocol was as follows: before addition of the ligand, the DMR signal was measured for 5 min, and the average of the signals recorded during this period was set as the baseline (pm = 0). Compounds are added manually in a volume of 10 µL, and the triggered DMR signals were recorded for 60 min. The antagonism protocol was as follows: antagonists were added manually 25 min before reading the 5 min baseline. […] Responses were described in the form of picometer shift over time (seconds) following the subtraction of values from vehicle-treated wells. Maximum picometer (pm) modification (peak) and area under the curve (AUC) were used to determine the agonist response.

[2] = biological target: T1, human LPA1 receptor (Homo sapiens, UniProt Q92633); assay: Calcium mobilization assay in CHOLPA1 cells; conditions: for Effect per se: 1 µM, data not shown; for Shift of the concentration–response curve to LPA: antagonism protocol (compound 35, compound 20 at 1 µM); for Effect on LPA maximal effect: tested as antagonist
T1 sequence (Q92633 whole entry): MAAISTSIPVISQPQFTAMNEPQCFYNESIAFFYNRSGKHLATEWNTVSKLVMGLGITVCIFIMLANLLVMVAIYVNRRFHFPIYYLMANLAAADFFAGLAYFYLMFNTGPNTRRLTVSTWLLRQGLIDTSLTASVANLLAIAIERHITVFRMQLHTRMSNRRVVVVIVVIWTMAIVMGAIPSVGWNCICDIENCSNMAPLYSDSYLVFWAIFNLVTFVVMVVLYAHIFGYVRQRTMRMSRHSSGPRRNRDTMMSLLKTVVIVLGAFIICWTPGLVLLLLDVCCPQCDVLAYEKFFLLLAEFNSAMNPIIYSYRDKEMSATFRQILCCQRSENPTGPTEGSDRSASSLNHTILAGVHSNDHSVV

[3] = biological target: T2, human LPA2 receptor (Homo sapiens, UniProt Q9HBW0); assay: Calcium mobilization assay in CHOLPA2 cells; conditions: CHOLPA2, calcium mobilization; for Effect per se / Shift of the concentration–response curve to LPA: 1 µM; for Effect per se: data not shown; for Shift of the concentration–response curve to LPA: antagonism protocol; for Agonism Emax / Agonism pEC50: #inactive at 1 μM
T2 sequence (Q9HBW0 whole entry): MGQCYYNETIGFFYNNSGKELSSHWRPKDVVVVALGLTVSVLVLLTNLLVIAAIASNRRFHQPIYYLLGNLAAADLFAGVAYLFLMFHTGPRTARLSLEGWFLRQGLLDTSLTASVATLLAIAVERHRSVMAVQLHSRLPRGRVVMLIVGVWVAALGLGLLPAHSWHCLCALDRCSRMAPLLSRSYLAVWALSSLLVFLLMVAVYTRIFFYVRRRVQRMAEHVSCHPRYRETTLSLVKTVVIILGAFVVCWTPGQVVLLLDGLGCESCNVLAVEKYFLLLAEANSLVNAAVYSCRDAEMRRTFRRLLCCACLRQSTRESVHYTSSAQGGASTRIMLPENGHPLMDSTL

[4] = biological target: T1, human LPA1 receptor; assay: Dynamic mass redistribution (DMR) assay in CHOLPA1 cells; conditions: for EC50: Agonism pEC50, CHOLPA1, DMR; for Shift of the concentration–response curve to LPA: antagonism protocol; for Shift of the concentration–response curve to LPA / Effect on LPA maximal effect: 1 µM; for Agonism Emax: negative DMR signal; for DMR response: CHOLPA1 cells; for Effect on LPA maximal effect: tested as antagonist
Protocol: All data were analyzed using GraphPad Prism 9.4 (La Jolla, CA, United States). Concentration–response curves were fitted using the four-parameter log-logistic equation. Data are expressed in the form mean ± s.e.m. across n experiments performed in duplicate. Agonist potency is expressed in the form pEC50, which is the negative logarithm to base 10 of the agonist molar concentration that produces 50% of the maximal possible effect of that agonist. […] In practice, equiactive concentrations of the agonist in the absence ([A]) and presence ([A’]) of a non-competitive antagonist ([B]) were compared in a double reciprocal plot describing a straight line, and pKB was derived from the equation: pKB = log[(slope—1)/[B]]. […] Maximal effect data were analyzed using the Student’s t-test or a one-way ANOVA followed by Dunnett’s post-hoc test.

[5] = biological target: T2, human LPA2 receptor; assay: Dynamic mass redistribution (DMR) assay in CHOLPA2 cells; conditions: for Shift of the concentration–response curve to LPA / DMR effect per se / Agonism Emax / Agonism pEC50: CHOLPA2, DMR; for Shift of the concentration–response curve to LPA: antagonism protocol, 1 µM; for DMR effect per se: concentration–response up to highest concentration tested; for DMR response: CHOLPA2 cells; for Agonism Emax / Agonism pEC50: negative DMR signal, peak, up to 10 µM (compound 35 up to 1 µM), °inactive at 10 μM
Protocol: Confluent cells were sub-cultured using trypsin/EDTA and used for experiments. Cells were seeded at a density of 20,000 cells/well in 30 µL into fibronectin-coated EnspireTM-LC 384-well plates and cultured for 20 h to form a confluent monolayer. On the day of the experiment, the cells were manually washed twice and maintained with assay buffer (HBSS with 20 mM HEPES, 0.01% BSA) for 90 min before DMR experiments. DMR was monitored in real time with a temporal resolution of 44 s throughout the assay. Experiments were performed at 37°C using an EnSight Multimode Plate Reader (PerkinElmer). The agonism protocol was as follows: before addition of the ligand, the DMR signal was measured for 5 min, and the average of the signals recorded during this period was set as the baseline (pm = 0). Compounds are added manually in a volume of 10 µL, and the triggered DMR signals were recorded for 60 min. […] Responses were described in the form of picometer shift over time (seconds) following the subtraction of values from vehicle-treated wells. Maximum picometer (pm) modification (peak) and area under the curve (AUC) were used to determine the agonist response.
All data were analyzed using GraphPad Prism 9.4 (La Jolla, CA, United States). Concentration–response curves were fitted using the four-parameter log-logistic equation. Data are expressed in the form mean ± s.e.m. across n experiments performed in duplicate. […] In practice, equiactive concentrations of the agonist in the absence ([A]) and presence ([A’]) of a non-competitive antagonist ([B]) were compared in a double reciprocal plot describing a straight line, and pKB was derived from the equation: pKB = log[(slope—1)/[B]]. […] Maximal effect data were analyzed using the Student’s t-test or a one-way ANOVA followed by Dunnett’s post-hoc test.

[6] = parameters: method as in Allanore et al., 2018; conditions: phase II, diffuse cutaneous systemic sclerosis; ref Allanore et al., 2018; cited from earlier work
[7] = biological target: LPA2 receptor; parameters: method as in Beck et al., 2008; conditions: ref Beck et al., 2008, cited from earlier work
[8] = system: LPA1; parameters: method as in Cheng et al., 2021; conditions: LPA1 antagonist, calcium mobilization; ref Cheng et al., 2021; cited from earlier work
[9] = parameters: method as in Palmer et al., 2018; conditions: patients with idiopathic pulmonary fibrosis, ref Palmer et al., 2018, cited from earlier work
[10] = system: human lung fibroblast proliferation; parameters: method as in Qian et al., 2012; conditions: inhibiting LPA-induced human lung fibroblast proliferation; ref Qian et al., 2012; cited from earlier work
[11] = system: CHO wild-type cells; assay: Calcium mobilization assay in CHO wild-type cells (control); assay type: cell-based; conditions: micromolar concentration
Protocol: Cells were seeded at a density of 50,000 cells/well in 100 μL into black, clear-bottom 96-well plates. The following day, cells were incubated with medium supplemented with 2.5 mM probenecid, 3 μM of the calcium-sensitive fluorescent dye Fluo-4 AM, and 0.01% pluronic acid for 30 min at 37°C. After the incubation period, the loading solution was aspirated, and 100 μL of HBSS supplemented with 20 mM HEPES, 2.5 mM probenecid, and 500 μM Brilliant Black was added. Serial dilutions of compounds were carried out in HBSS/HEPES (20 mM) buffer containing 0.01% BSA. Cell culture and drug plates were placed into a fluorimetric imaging plate reader (FlexStation II, Molecular Devices, Sunnyvale, CA), and fluorescence changes were measured. Online additions were carried out with a volume of 50 μL/well. […] To facilitate drug diffusion into the wells, the experiments were performed at 37°C, and three cycles of mixing (25 μL from each well moved up and down three times) were performed immediately after injection of antagonists into the wells. Agonist effects were expressed in the form of maximum percentage change over baseline fluorescence. Baseline fluorescence was measured in wells treated with vehicle.

[12] = biological target: LPA1 receptor; conditions: 2017, cited from earlier work
[13] = negative DMR signal (inverse agonism), peak, up to 10 µM (compound 35 up to 1 µM), °inactive at 10 μM
[14] = CHOLPA1, DMR, peak, up to 10 µM (compound 35 up to 1 µM), °inactive at 10 μM
[15] = CHOLPA1, calcium mobilization, #inactive at 1 μM
[16] = CHOLPA1, calcium mobilization, *inactive at 0.1 µM

Effect per se ([2]; CHOLPA1, calcium mobilization) | Effect per se [3] | EC50 [4, 13] | Agonism Emax [4, 14] | DMR response ([4]; compound 10 μM, mean ± s.e.m.) | DMR response ([5]; compound 10 μM, mean ± s.e.m.) | Agonism Emax [3] | Agonism pEC50 [3] | Agonism Emax [5] | Agonism pEC50 [5] | Compound | DMR response ([1]; compound 10 μM, mean ± s.e.m.) | Shift of the concentration–response curve to LPA [3] | Shift of the concentration–response curve to LPA ([4]; CHOLPA1, DMR) | DMR effect per se [5] | Shift of the concentration–response curve to LPA ([2]; CHOLPA1, calcium mobilization) | other results
inactive | inactive | 309 nM | −68 ± 13 pm | −78 ± 18 pm | −55 ± 19 pm |  |  |  |  | Cc1noc(-c2ccc(O[C@H]3CC[C@@H](C(=O)O)CC3)cc2)c1NC(=O)O[C@H](C)c1ccccc1Cl [Compound CHI] | −4 ± 22 pm | did not shift the concentration–response curve to LPA | active as an LPA1 antagonist only in calcium mobilization experiments | inactive |  | DMR effect per se ([1]; CHO wild-type cells, 10 µM): inactive; Kb ([2]; pKB, CHOLPA1, calcium mobilization, Gaddum method, 1 µM antagonist): 57.5 nM; Shift of the concentration–response curve to LPA [5]: did not shift the concentration–response curve to LPA
 |  |  |  |  |  |  |  |  |  | COc1ccc(C(=O)NC2(C(=O)O)Cc3ccccc3C2)cc1OCCc1cccc(C)c1 [SAR-100842] |  |  |  |  |  | Improvement in the modified Rodnan skin thickness score [6]: not statistically significant; Tolerability [6]: well-tolerated
did not produce any effect per se | did not produce any effect per se |  | Crc incomplete |  |  | Inactive^# | Inactive^# | Crc incomplete | Crc incomplete | Cc1csc2c(N[C@@H](C)CN3CCN(S(=O)(=O)c4ccc(Cl)c(Cl)c4)CC3)ncnc12 [Compound 35] |  | shifted the concentration–response curve to LPA to the right | did not shift the concentration–response curve to LPA to the right | inactive per se, or slightly active only at the higher concentration tested | did not shift the concentration–response curve to LPA to the right | DMR response ([1]; compound 35 1 μM): −27 ± 13 pm; pIC50 ([7]; inhibition of stimulant activity of LPA on Ca2+ mobilization, LPA2-transfected cells): 7.77; Selectivity for LPA2 vs. LPA1 and LPA3 receptors [7]: highly selective; Kb ([2]; Antagonism pKB/pA2, CHOLPA1, calcium mobilization, LPA curve in absence and presence of 1 µM compound): > 1000 nM; Agonism Emax [2, 15]: Inactive^#; Agonism pEC50 [2, 15]: Inactive^#; Agonism pEC50 ([4]; CHOLPA1, DMR, negative DMR signal (inverse agonism), peak, up to 10 µM (compound 35 up to 1 µM), °inactive at 10 μM): Crc incomplete; DMR effect per se ([4]; CHOLPA1, DMR, up to highest concentration tested (10 μM; compound 35 1 µM)): only a slight negative signal at the highest concentration tested; DMR response ([4]; compound 35 1 μM): −101 ± 10 pm; Shift of the concentration–response curve to LPA [5]: shifted the concentration–response curve to LPA to the right; DMR response ([5]; compound 35 1 μM): −88 ± 6 pm
did not produce any effect per se | did not produce any effect per se | 87.1 nM |  | −134 ± 28 pm | −79 ± 18 pm | Inactive^# | Inactive^# | Crc incomplete | Crc incomplete | Cc1noc(-c2ccc(-c3ccc(C4(C(=O)O)CC4)cc3)cc2)c1NC(=O)O[C@H](C)c1ccccc1 [BMS-986020] | −39 ± 17 pm | shifted the concentration–response curve to LPA to the right | shifted the concentration–response curve to LPA to the right | inactive per se, or slightly active only at the higher concentration tested | shifted the concentration–response curve to LPA to the right | pKB [8]: ~8; Rate of decline in forced vital capacity ([9]; compared with placebo): slower rate of decline in forced vital capacity; Cholecystitis ([9]; study interrupted): three cases of cholecystitis; Hepatic enzymes ([9]; study interrupted): elevation in hepatic enzymes; Agonism Emax [2, 16]: Inactive*; Agonism pEC50 [2, 16]: Inactive*; Effect on LPA maximal effect ([2]; CHOLPA1, calcium mobilization): produced a reduction in LPA maximal effect; Kb [4]: 79.4 nM; Effect on LPA maximal effect ([4]; CHOLPA1, DMR): produced a reduction in LPA maximal effect; also recorded: slight but statistically significant reduction in LPA maximal effect
did not produce any effect per se | did not produce any effect per se | 49 nM | −80 ± 16 pm | −66 ± 16 pm | 3 ± 21 pm | Inactive^# | Inactive^# | Inactive° | Inactive° | Cc1nnn(-c2ccc(-c3ccc(C4(C(=O)O)CC4)cc3)cc2)c1NC(=O)O[C@H](C)c1ccccc1 [RO 6842262] | −36 ± 12 pm |  | shifted the concentration–response curve to LPA to the right | inactive per se, or slightly active only at the higher concentration tested | shifted the concentration–response curve to LPA to the right | Potency relative to KI 16425 [10]: 10 fold; Kb ([2]; Antagonism pKB (pKB/pA2), CHOLPA1, calcium mobilization, Gaddum method, LPA curve in absence and presence of 0.1 µM antagonist): 2.04 nM; Agonism Emax [2, 16]: Inactive*; Agonism pEC50 [2, 16]: Inactive*; Effect on LPA maximal effect ([2]; CHOLPA1, calcium mobilization): reduced the LPA maximal effect in a concentration-dependent manner; LPA1 selectivity (vs. LPA2) ([2]; assay not specified): > 30 fold; Effect on LPA maximal effect ([4]; CHOLPA1, DMR): without changing the maximal effect
 |  |  |  |  |  |  |  |  |  | Nc1ncnc2c1ncn2[C@@H]1O[C@H](COP(=O)(O)OP(=O)(O)OP(=O)(O)O)[C@@H](O)[C@H]1O [ATP] |  |  |  |  |  | DMR response ([1]; ATP 100 μM): 156 ± 11 pm; DMR response ([4]; ATP 100 μM): 84 ± 6 pm; DMR response ([5]; ATP 100 μM): 96 ± 13 pm
 |  |  |  |  |  |  |  |  |  | CCCCCCCC/C=C\CCCCCCCC(=O)OC[C@@H](O)COP(=O)([O-])O.[Na+] [LPA, Oleoyl-L-α-lysophosphatidic acid sodium salt] |  |  |  |  |  | Effect in CHO wild-type cells ([1]; DMR, micromolar concentration): elicited some stimulant effects; Effect in CHO wild-type cells [11]: elicited some stimulant effects; pEC50 ([12]; native LPA1 receptor, ref Sattikar et al.): ~7.5; pEC50 ([12]; recombinant LPA1 receptor, ref Swaney et al., 2011, Shimizu and Nakayama): ~7.5; pEC50 (stimulant effect of LPA) ([2]; CHOLPA1, calcium mobilization, LPA 0.01 nM–10 µM): 7.25 (7.19–7.31); pEC50 (stimulant effect of LPA) ([4]; CHOLPA1, DMR, peak, LPA 0.01 nM–10 µM): 7.16 (6.89–7.43)
